Results on one molecule are retold here after PMC3708431 (Evidence-based Complementary and Alternative Medicine : eCAM, 2013).

One experiment has as its target T1, acetylcholinesterase (Electrophorus electricus, UniProt O42275).
T1 construct: gene ache; Type-VI-S, EC 3.1.1.7
In words: Ellman spectrophotometric assay at […] nm, electric eel enzyme. It counts as biochemical. The settings on record: read-out: Antiacetylcholinesterase assay, IC50. In general terms: In Ellman's method for cholinesterases, released thiocholine reacts with DTNB.

A further experiment deals with T2, 5-lipoxygenase (Homo sapiens, UniProt P09917).
T2 construct: gene ALOX5
T2 sequence (P09917 1-674): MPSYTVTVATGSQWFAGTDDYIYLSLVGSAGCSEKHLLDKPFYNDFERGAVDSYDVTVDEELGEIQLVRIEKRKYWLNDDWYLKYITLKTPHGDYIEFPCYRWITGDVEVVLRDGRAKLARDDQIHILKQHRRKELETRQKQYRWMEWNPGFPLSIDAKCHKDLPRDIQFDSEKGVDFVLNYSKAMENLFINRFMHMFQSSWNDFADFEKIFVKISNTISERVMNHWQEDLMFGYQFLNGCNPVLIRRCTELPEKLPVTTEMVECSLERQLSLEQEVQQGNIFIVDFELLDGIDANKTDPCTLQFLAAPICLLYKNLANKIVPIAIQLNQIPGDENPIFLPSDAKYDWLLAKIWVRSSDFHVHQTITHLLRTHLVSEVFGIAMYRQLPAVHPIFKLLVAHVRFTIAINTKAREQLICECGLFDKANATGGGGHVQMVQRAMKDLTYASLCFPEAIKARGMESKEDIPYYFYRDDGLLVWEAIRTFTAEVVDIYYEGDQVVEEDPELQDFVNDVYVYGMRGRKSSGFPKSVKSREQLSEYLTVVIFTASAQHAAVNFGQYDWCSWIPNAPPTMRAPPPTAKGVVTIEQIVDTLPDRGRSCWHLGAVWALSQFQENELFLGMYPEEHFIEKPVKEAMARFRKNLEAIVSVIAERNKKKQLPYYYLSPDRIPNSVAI
The experiment in a line: spectrophotometric enzyme assay at […] nm, linoleic acid substrate, human recombinant enzyme. It counts as biochemical. The settings on record: read-out: Anti-inflammatory assay 5-LOX, IC50.

T1 sequence (O42275 24-633): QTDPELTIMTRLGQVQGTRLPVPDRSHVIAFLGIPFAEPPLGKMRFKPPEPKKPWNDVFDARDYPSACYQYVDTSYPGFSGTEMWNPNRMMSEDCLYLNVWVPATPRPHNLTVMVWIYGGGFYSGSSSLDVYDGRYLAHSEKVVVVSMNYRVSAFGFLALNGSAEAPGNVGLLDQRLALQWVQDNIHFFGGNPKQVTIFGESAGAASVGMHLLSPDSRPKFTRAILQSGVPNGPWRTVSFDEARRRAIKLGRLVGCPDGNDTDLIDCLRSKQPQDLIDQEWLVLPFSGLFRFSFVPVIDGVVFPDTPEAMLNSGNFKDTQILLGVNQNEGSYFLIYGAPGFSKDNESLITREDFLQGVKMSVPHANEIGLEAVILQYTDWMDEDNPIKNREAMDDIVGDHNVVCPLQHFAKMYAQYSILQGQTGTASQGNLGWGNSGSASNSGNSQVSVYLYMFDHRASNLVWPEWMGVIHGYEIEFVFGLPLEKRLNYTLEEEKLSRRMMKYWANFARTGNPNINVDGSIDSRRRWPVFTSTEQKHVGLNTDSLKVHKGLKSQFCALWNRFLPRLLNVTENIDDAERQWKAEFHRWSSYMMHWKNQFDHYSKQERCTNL

As to `COc1cc2ccc(=O)oc2cc1O` [SC, 7-hydroxy-6 methoxycoumarin], the IC50 on acetylcholinesterase came to 270 ± 0.02 µM; on 5-lipoxygenase, 1760 ± 10 nM.

What is called IC50 is the concentration that inhibits the measured activity by half.
